Experimental findings from PubChem BioAssay AID1963836 (Molecular Pharmacology Branch, DTP, NCI, 2024) are described below.

“And” between values parts separate entries of the source, which are not always exact repeats. Equal values may be shown once.

The subject of this assay is 857933-349-R-J2-PDC complex spheroid viability. The experiment in a line: Anticancer human tumor 857933-349-R-J2-PDC patient-derived colon adenocarcinoma cell line growth inhibition [POLQ]. The settings on record: for viability, T/C: stronger effect = lower value. The protocol:
Multicellular complex tumor spheroid response to Polymerase (POL) inhibitors (novobiocin, ART-558, RP6685) in combination with a variety of drugs and investigational agents in selected tumor cell lines
The POL inhibitors (novobiocin, ART-558, and RP6685) were evaluated both individually and in combination with standard of care and investigational anticancer small molecules within a complex spheroid model of solid tumors. . Complex spheroids include a stromal component modeled by human endothelial cells (HUVEC) and fibroblasts modeled by human mesenchymal stem cells (MSCs). The concentration ranges selected for each drug and investigational agent were based upon clinically achievable concentrations if the clinical Cmax of the agent was known.
Compounds. The drugs and investigational agents: novobiocin (NSC847541), ART-558 (NSC835418), RP-6685 (NSC848927), peposertib (NSC802822), ceralasertib (NSC780249), elimusertib (NSC800525), camonsertib (NSC841442), AZD-1390 (NSC803789), olaparib (NSC753686), talazoparib (NSC767125), rucaparib (NSC756644), sotorasib (NSC818433), MRTX-1133 (NSC836407), SN-38 (NSC673596), topotecan (NSC609699), epotoside (NSC141540), doxorubicin (NSC123127), gemcitabine (NSC613327), 5-fluorouracil (NSC19893), paclitaxel (NSC125973), vemurafenib (NSC761431), MSA-2 (NSC828583), SN-011 (NSC837082), adavosertib (NSC754352), prexasertib (NSC758257), carboplatin (NSC241240) and oxaliplatin (NSC266046), were obtained from the National Cancer Institute (NCI) Developmental Therapeutics Program Chemical Repository (21). The FDA-approved anticancer drug set is available from the Developmental Therapeutics Program at https://dtp.cancer.gov/organization/dscb/obtaining/. […] The stock solutions were prepared in dimethyl sulfoxide (DMSO, Sigma-Aldrich, St. Louis, MO, cat. D2650), except for the platinum compounds which were prepared in saline (Quality Biological, Gaithersburg, MD, cat. 114-055-101), at 800-fold the tested concentration and stored at -70 degrees C prior to their use. All drugs and investigational agents were tested over a range starting from a high concentration at or near the clinical Cmax and decreasing in half-log increments. If the clinical Cmax for an agent had not been determined, the highest concentration tested was 10 microM, except for SN-38, which was tested at a high concentration of 1 microM.
Cell Culture. All cells were maintained in an incubator at 37 degrees C and 5% CO2 with 95% humidity. The PDC lines were cultured according to standard operating procedures established by the NCI PDMR (https://pdmr.cancer.gov). Table 3 of the manuscript, lists the cell lines along with the number of the three cell types plated to form the mct-spheroids and media for tumor cell growth. After thawing, all PDC lines, except 997537-175-T-J1-PDC and 415267-285-R-J2-PDC, were cultured in Matrigel-coated flasks prepared with a working solution of 1X Ham's F-12 nutrient mix, without supplementation (Thermo Fisher Scientific, cat. 11765054), 100 U/mL penicillin-streptomycin (Thermo Fisher Scientific, cat. 15140122), and 2.5% Matrigel (Corning Inc., Corning, NY, cat. 354248) for the first three passages. The two PDC lines 997537-175-T-J1-PDC and 415267-285-R-J2-PDC were cultured on uncoated flasks. The 857933-349-R-J2-PDC line was cultured in 6C/Colon 1B media containing advanced DMEM/F-12 (Thermo Fisher Scientific, cat. 12634028), 10 mM HEPES (Thermo Fisher Scientific, cat. 15630080), 1X GlutaMAX supplement (Thermo Fisher Scientific, cat. 35050061), 0.1 mg/mL primocin (InvivoGen, San Diego, CA, cat. ant-pm-2), 10% defined fetal bovine serum, heat inactivated (HyClone Laboratories Inc., Logan, UT, cat. SH30070.03HI), 50% L-WRN conditioned media (ATCC, cat. CRL-3276), 1.25 mM N-Acetyl-L-cysteine (Sigma-Aldrich, cat. A9165), 10 mM nicotinamide (Sigma-Aldrich, cat. N0636), 1X B-27 supplement (Thermo Fisher Scientific, cat. 17504044), 1X N-2 supplement (Thermo Fisher Scientific, cat. […]
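Further: spheroids exposed to compounds for seven days before readout.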

Consider `O=c1[nH]cc(F)c(=O)[nH]1`, for which the viability, T/C was 98.7% and 89.7% and 53.3% (compound 0.0316 µM); 89.1% and 112% and 86.9% (compound 0.1 µM); 114% and 97.8% and 96% (compound 0.316 µM); 72.6% and 81.3% and 59.4% (compound 1 µM); 45.8% and 37.1% and 40.2% (compound 3.16 µM); 28.3% and 24.9% and 21.5% (compound 10 µM). In addition, the IC50 (curve of compound) was 2380 nM and 2250 nM and 1890 nM.

For the molecule `O=C(c1cc(Cc2n[nH]c(=O)c3ccccc23)ccc1F)N1CCN(C(=O)C2CC2)CC1`, the viability, T/C (compound 0.0316 µM) was 110% and 84.9% and 98.6%; the viability, T/C (compound 0.1 µM) was 108% and 96.5% and 87.8%; the viability, T/C (compound 0.316 µM) was 96.2% and 105% and 95.9%; the viability, T/C (compound 1 µM) is 101% and 98.2% and 108%; the viability, T/C (compound 3.16 µM) was 94.1% and 79.9% and 110%; the viability, T/C (compound 10 µM) was 72.3% and 76.5% and 84.3%. Under “curve of compound”, the IC50 was above 10000 nM.

Turning to `COc1cc2cc(C(=O)CCC(=O)O)sc2cc1OC`, the viability, T/C is, setting by setting: (compound 0.0316 µM) 92.5% and 89% and 101%; (compound 0.1 µM) 88.6% and 95.5% and 91.5%; (compound 0.316 µM) 94.9% and 102% and 82.7%; (compound 1 µM) 88.2% and 110% and 92.5%; (compound 3.16 µM) 102% and 111% and 116%; (compound 10 µM) 84.1% and 95% and 89.9%. The IC50 (curve of compound) is above 10000 nM.

As for `C#Cc1c(F)ccc2cc(O)cc(-c3ncc4c(N5CC6CCC(C5)N6)nc(OCC56CCCN5CC(F)C6)nc4c3F)c12` (centres undefined), the viability, T/C reads like this: (compound 0.0316 µM) 85.3% and 89.3% and 102%; (compound 0.1 µM) 101% and 91.6% and 82.3%; (compound 0.316 µM) 95.7% and 95.3% and 81.3%; (compound 1 µM) 87.1% and 81.7% and 96.6%; (compound 3.16 µM) 99.9% and 71.5% and 70.8%; (compound 10 µM) 76.4% and 80.9% and 93.4%. Also, for the setting “curve of compound”, the IC50 is above 10000 nM.

For `COC1C(OC(N)=O)C(O)C(Oc2ccc3c(O)c(NC(=O)c4ccc(O)c(CC=C(C)C)c4)c(=O)oc3c2C)OC1(C)C` (centres undefined), the IC50 (compound alone, run of 01/08/2024) is above 10000 nM.

As for `C=CCn1c(=O)c2cnc(Nc3ccc(N4CCN(C)CC4)cc3)nc2n1-c1cccc(C(C)(C)O)n1`, the viability, T/C is 99.5% and 94.6% and 95.5% (compound 0.00316 µM); 72.9% and 104% and 93.5% (compound 0.01 µM); 84.6% and 98.7% and 93.5% (compound 0.0316 µM); 94.9% and 107% and 102% (compound 0.1 µM); 109% and 102% (2×) (compound 0.316 µM); 66.4% and 73.5% and 82.9% (compound 1 µM). Also, for the setting “curve of compound”, the IC50 was above 1000 nM.

Take `CCc1cc2c(N3CCc4c(cc(Cn5ccnc5)cc4-c4cn(C)nc4C(F)(F)F)C3=O)ccnc2c(OC)n1`: the viability, T/C is 78.8% and 89.8% and 94.1% (compound 0.0316 µM); 83.8% and 87.8% and 80.9% (compound 0.1 µM); 73.6% and 90% and 98.3% (compound 0.316 µM); 73.4% and 84.9% and 82.2% (compound 1 µM); 62.2% and 72.7% and 78% (compound 3.16 µM); 58.9% and 65.9% and 59% (compound 10 µM). Under “curve of compound”, the IC50 was above 10000 nM.

`CC1COCCN1c1cc(-c2ccnn2C)c2ccnc(-c3ccn[nH]3)c2n1` (centres undefined) + Nc1ccc(C#CCN(C(=O)Cc2ncc(C(F)(F)F)cc2C(F)(F)F)c2ccc(F)cc2)nn1: the IC50 was 812 nM (curve of first compound, second compound 0.0316 µM); 495 nM (curve of first compound, second compound 0.1 µM); 739 nM (curve of first compound, second compound 0.316 µM); 445 nM (curve of first compound, second compound 1 µM); 272 nM (curve of first compound, second compound 3.16 µM); 648 nM (curve of first compound, second compound 10 µM). Further, the viability, T/C was 76.4% (second compound 0.0316 µM, first compound 0.0316 µM); 65.6% (second compound 0.0316 µM, first compound 0.1 µM); 62.1% (second compound 0.0316 µM, first compound 0.316 µM); 50.3% (second compound 0.0316 µM, first compound 1 µM); 32.5% (second compound 0.0316 µM, first compound 3.16 µM); 43.8% (second compound 0.0316 µM, first compound 10 µM). In addition, the viability, T/C reads like this: (second compound 0.1 µM, first compound 0.0316 µM) 71.5%; (second compound 0.1 µM, first compound 0.1 µM) 65.3%; (second compound 0.1 µM, first compound 0.316 µM) 53%; (second compound 0.1 µM, first compound 1 µM) 47.9%; (second compound 0.1 µM, first compound 3.16 µM) 30.9%; (second compound 0.1 µM, first compound 10 µM) 42.8%. The viability, T/C was 81.1% (second compound 0.316 µM, first compound 0.0316 µM); 78.5% (second compound 0.316 µM, first compound 0.1 µM); 56.2% (second compound 0.316 µM, first compound 0.316 µM); 51.4% (second compound 0.316 µM, first compound 1 µM); 37.3% (second compound 0.316 µM, first compound 3.16 µM); 41.3% (second compound 0.316 µM, first compound 10 µM). Further, the viability, T/C (second compound 1 µM, first compound 0.0316 µM) was 74.9%; the viability, T/C (second compound 1 µM, first compound 0.1 µM) was 61.9%; the viability, T/C (second compound 1 µM, first compound 0.316 µM) is 51.5%; the viability, T/C (second compound 1 µM, first compound 1 µM) was 49%; the viability, T/C (second compound 1 µM, first compound 3.16 µM) was 36.9%; the viability, T/C (second compound 1 µM, first compound 10 µM) is 45.6%. The viability, T/C is, setting by setting: (second compound 3.16 µM, first compound 0.0316 µM) 76.4%; (second compound 3.16 µM, first compound 0.1 µM) 68.2%; (second compound 3.16 µM, first compound 0.316 µM) 47.4%; (second compound 3.16 µM, first compound 1 µM) 42.9%; (second compound 3.16 µM, first compound 3.16 µM) 42.8%; (second compound 3.16 µM, first compound 10 µM) 46.7%. Also, the viability, T/C runs as follows: (second compound 10 µM, first compound 0.0316 µM) 78.2%; (second compound 10 µM, first compound 0.1 µM) 62.1%; (second compound 10 µM, first compound 0.316 µM) 54.8%; (second compound 10 µM, first compound 1 µM) 45.3%; (second compound 10 µM, first compound 3.16 µM) 47.2%; (second compound 10 µM, first compound 10 µM) 45.5%.

As for `CNCc1ccc(-c2[nH]c3cc(F)cc4c3c2CCNC4=O)cc1`, the viability, T/C (compound 0.0316 µM) was 100% and 90.4% and 94.9%; the viability, T/C (compound 0.1 µM) was 113% and 94.5% and 90.2%; the viability, T/C (compound 0.316 µM) is 112% and 94.5% and 80.8%; the viability, T/C (compound 1 µM) was 109% and 95.4% and 91.2%; the viability, T/C (compound 3.16 µM) was 108% and 106% and 89.7%; the viability, T/C (compound 10 µM) is 97.1% and 91.2% and 90%. Also, the IC50 (curve of compound) was above 10000 nM.

With `CCCS(=O)(=O)Nc1ccc(F)c(C(=O)c2c[nH]c3ncc(-c4ccc(Cl)cc4)cc23)c1F`, the viability, T/C was 87.2% and 97.5% and 76% (compound 0.0316 µM); 91% and 92.8% and 98.1% (compound 0.1 µM); 80.8% and 102% and 99.7% (compound 0.316 µM); 82.6% and 101% and 102% (compound 1 µM); 97.3% and 93.2% and 86% (compound 3.16 µM); 32.9% and 13.3% and 13.9% (compound 10 µM). In addition, the IC50 (curve of compound) was 6990 nM and 5900 nM and 5640 nM.

As a reminder, the viability, T/C is the ratio of treated to control. A word on the IC50: it is the concentration that inhibits the measured activity by half.
